Earlier results, collected in patent publication US9511030B2, “Controlled release particles” (priority 2011, dated 2016).

Row | Structure (SMILES) | water solubility
1 | C=C(C)C(=O)O [Methacrylic acid] | 8.9 mass %
2 | CCCC1COC(Cn2cncn2)(c2ccc(Cl)cc2Cl)O1 (centres unmarked) [Propiconazole, 1-[2-(2,4-dichlorophenyl)-4-n-propyl-1,3-dioxolane-2-ylmethyl]-1H-1,2,4-triazole] | 110 ppm
